Counter-ions that a name gives are not always drawn.
How the values were obtained:
[1] = Compatibility of PAG with resist (base resin); settings: for Compatibility: acid generator (1.0), PGMEA (400)
[2] = Solubility in resist solvent (PGMEA); assay type: physicochemical; settings: for Solubility: in propylene glycol monomethyl ether acetate (PGMEA)

Question: Which results are given for “(adamantan-1-ylmethyl)oxycarbonyl difluoromethanesulfonic acid triphenylsulfonium [PAG2, reference compound]”?
Answer: Compatibility ([1]; Resin 1 (40 parts by wt.)): Good; Compatibility ([1]; Resin 2 (40 parts by wt.)): Good; Compatibility ([1]; Resin 3 (40 parts by wt.)): Good; Compatibility ([1]; Resin 4 (40 parts by wt.)): Good; Solubility [2]: 0.3 parts by weight of PAG dissolved in 100 parts by weight of PGMEA

Question: With “nonafluorobutanesulfonic acid triphenylsulfonium salt [PAG3, reference compound]” as the compound, how does the Compatibility ([1]; Resin 1 (40 parts by wt.)) read?
Answer: The Compatibility was “Good”.

Question: For CC(CC(S(=O)(=O)C(F)(F)F)S(=O)(=O)C(F)(F)F)OC(=O)C12CC3CC(CC(C3)C1)C2 (centres unmarked) [PAG1, 3-(1-adamantanecarbonyl)oxy 1,1-bis(trifluoromethanesulfonyl)butane triphenylsulfonium salt], which Compatibility ([1]; Resin 1 (40 parts by wt.)) is on record?
Answer: Its Compatibility is “Good”.

Question: And the Compatibility ([1]; Resin 2 (40 parts by wt.))?
Answer: Its Compatibility is “Good”.

Question: What about the Compatibility ([1]; Resin 3 (40 parts by wt.)) of the same compound?
Answer: Its Compatibility is “Good”.

Question: What about the Compatibility ([1]; Resin 4 (40 parts by wt.)) of the same compound?
Answer: Its Compatibility is “Good”.

Question: What about the Compatibility ([1]; Resin 5 (40 parts by wt.)) of the same compound?
Answer: Its Compatibility is “Good”.

Question: What about the “Compatibility with resists compared with conventional products” value ([1]; summary of Table 2 and Table 3, in words) of the same compound?
Answer: Its value is “higher compatibility with resists as compared with conventional products”.

Question: What about the “Solubility compared with existing PAG (PAG2) having an adamantane skeleton” value ([2]; in PGMEA, statement in words) of the same compound?
Answer: The value was “superior”.

Question: And the Solubility [2]?
Answer: Its Solubility is “not less than 0.1 parts by weight of PAG dissolved in 100 parts by weight of PGMEA”.

From patent US8580486B2, “Salt having fluorine-containing carbanion structure, derivative thereof, photoacid generator, resist material using the photoacid generator, and pattern forming method” (Central Glass Company, Limited, priority 2008, dated 2013)
